Data as given in BindingDB's records for doi:10.1016/j.ejmech.2019.01.044 (Institute of Agricultural and Food Biotechnology, 2019).

Biological target: T1, Proteasome subunit beta type-5 (Rattus norvegicus, UniProt P28075)
T1 sequence (P28075 whole entry): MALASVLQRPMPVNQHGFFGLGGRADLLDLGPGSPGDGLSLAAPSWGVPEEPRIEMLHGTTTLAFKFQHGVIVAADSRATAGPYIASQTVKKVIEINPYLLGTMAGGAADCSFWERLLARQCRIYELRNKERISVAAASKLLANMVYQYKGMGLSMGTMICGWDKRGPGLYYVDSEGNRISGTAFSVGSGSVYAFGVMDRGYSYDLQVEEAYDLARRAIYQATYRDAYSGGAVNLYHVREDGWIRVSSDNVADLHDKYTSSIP
Test: Inhibition of chymotrypsin-like activity of rat liver 26 proteasome assessed as decrease in fluorescence using succinyl-Leu-Leu-Val-Tyr-4-methylcoumaryl-7-amide as substrate preincubated for 30 mins followed by addition of substrate and measured after 1 hr by fluorescence based method

Row | IC50 | SMILES
1 | 0.0713 µM | C=CC(/C=C\c1ccc(O)cc1)c1ccc(O)cc1 (centres undefined)
2 | > 0.96 µM | COc1cc(O)c(C(=O)c2ccc(O)cc2)c(O)c1
3 | 0.234 µM | Oc1ccc(CC2COc3cc(O)ccc3C2)cc1 (centres undefined)
4 | 0.178 µM | COc1cc(O)ccc1CCCc1ccc(O)cc1 [BROUSSONIN B]
